In patent publication US4835185A, “Immunomodulator for improving commercial performance of domestic animals” (Iowa State University Research Foundation, Inc., priority 1987, dated 1989):

Tests used:
[1] = Dairy Cattle Trial: nitrogen balance, milk production and composition; type: in vivo, Holstein and Brown Swiss cows (cattle)
Source text: Eight Holstein and four Brown Swiss cows were assigned randomly (blocking for lactation number and breed) to either a control or treatment group. Four of the Holsteins and two of the Brown Swiss were in their first lactation and all cows were between 134-283 days into lactation (mid-lactation). Cows were milked twice daily (2:30 a.m. and 2:00 p.m.).
Cows were fed ad libitum a total mixed ration twice daily (7:30 a.m. and 5:30 p.m.) with feed refusals collected before the morning feeding. The diet consisted of 31% chopped alfalfa hay, 18% corn silage, and […] (as a % of the dry matter). The grain mix was calculated to contain 1.55 Mcal NE/kg dry matter and 16% crude protein. A major portion of the grain protein was from expeller processed soybean meal with higher than usual bypass characteristics. The cows were consuming protein in excess of their normal requirements. The grain ration contained an estimated 10% leucine (total protein basis), and the complete diet contained an estimated 9% leucine (total protein basis).
During the treatment period half the cows received Na-KIC at 0.75% of the diet dry matter. KIC was fed in a mixture which consisted of Na-KIC, corn gluten meal, hydrogenated soy oil and paraffin in a ratio of 2:1.0:0.1:0.1. The mixture was extruded and formed into crumbles. At least part of the KIC may have escaped rumen degradation with this treatment. Additionally, 100 units of tocopherol were added per gram of Na--KIC to prevent oxidation of KIC. Control animals were fed an equivalent amount of the same mixture but without KIC added.
During the first two weeks of the experiment (control period; designated weeks -2 and -1), all cows received the same diet. The trial period extended over the next three weeks (weeks 1, 2, 3) during which cows received either the KIC or control mix top-dressed on their diets twice per day (half the dose in the morning, half in the evening). Throughout the experiment, daily milk yield, milk composition, and feed consumption was measured for each cow. At the end of the control period and at the end of the treatment period, uninary catheters were inserted and total urine and fecal collections were made for 48 hrs. Results of production and nitrogen balance studies were analyzed statistically using each cow as her own control. The trial effect was measured by subtracting the average control period value from the value during the treatment period. ANOVA was used to detect differences between the KIC-fed and control groups.

[2] = test system: cholesterol in lean tissue and plasma; experiment: Lamb trials: cholesterol in lean tissue and plasma; type: in vivo, lambs (sheep)
Source text: The lambs used in Trial 1 consisted of medium-frame crossbred wethers and ewes weighing 26 to 31 kg. The lambs used in Trial 2 consisted of medium-framced crossbred rams weighing 18 to 25 kg. Each animal was raised as a single. The lambs were housed in a temperature controlled room in individual pens with nipple waterers. When received, the lamps were vaccinated for enterotoxemia. They were allowed to adjust to the pens and the environment for 10 days. One day before the trial began, the lambs were sheared and placed on their respective dietary treatments. The lamps were allotted blocking by weight and sex into two dietary treatment groups. Growth and feed consumption were measured bi-weekly. All lamb weights were taken after a 12 to 16 hour fast. The animals were slaughtered at 50 kg in the Iowa State University Meat laboratory facilities at Ames, Iowa. At slaughter, the lamb's internal organs and wool were weighed and sampled, loin eye area and back fat measured, and carcasses separated into fat, lean, and bone.
The SMB (soybean meal-containing) and the CGM (corn-gluten-containing) diets (compositions given in Table A) were fed twice per day in quantities ensuring that feed was before the lambs at all times. The diets were calculated to be equivalent to each other with respect to metabolizable protein, ether extract, fiber, and minerals with the exception of calcium and phosphorus. […] The CGM diet was calculated to contain slightly more energy (TDN 81.7 vs. 79.0, NEm 1.88 v. 1.86, Neg. 1.23 vs. 1.22). […] The soybean meal ingredient contained about 3.5 wt % leucine, while the corn gluten meal ingredient contained about 15 wt % leucine. The CGM diet was therefore higher in leucine than the SBM diet, containing an estimated 16 wt % leucine as compared with an estimated 8 wt % leucine based on total crude protein in the diet.
^(8) Amount of cholesterol in lean tissue (ng/mg) and plasma (ng/ml).
^(1)- (8) See Table B, except cholesterol data is for lean tissue

[3] = Na-KIC 0.75% of diet dry matter, pre 186

Compound: CC(C)CC(=O)C(=O)O [KIC, alpha-ketoisocaproate]
- Feces output, Change ([1]; KIC group, control +1): -6 g N/day
- Milk output, Change ([1]; KIC group, control +3): +9 g N/day
- Urine output, Change ([1]; KIC group, control +15): 0 g N/day
- Body storage (N balance), Change ([1]; KIC group, control +18): +26 g N/day
- Feed intake, Change ([1]; KIC group, control +37): +28 g N/day
- Milk fat yield, Change ([1]; KIC group, control +.00): +.09 kg/day
- Milk fat percent, Change ([1]; KIC group, control +.03): +.21%
- Milk protein percent, Change ([1]; KIC group, control +.13): +.11%
- Milk yield, Change ([1]; KIC group, control -.13): +.97 kg/day
- Milk protein percent, Post ([1]; Na-KIC 0.75% of diet dry matter, pre 3.35): 3.46%
- Milk fat percent, Post ([1]; Na-KIC 0.75% of diet dry matter, pre 4.07): 4.27%
- Milk yield, Post ([1]; Na-KIC 0.75% of diet dry matter, pre 23.0): 23.9 kg/day
- Body storage (N balance), Post ([1]; Na-KIC 0.75% of diet dry matter, pre 34): 60 g N/day
- Milk output, Post ([1]; Na-KIC 0.75% of diet dry matter, pre 131): 140 g N/day
- Feces output, Post [1, 3]: 180 g N/day
- Urine output, Post [1, 3]: 186 g N/day
- Feed intake, Post ([1]; Na-KIC 0.75% of diet dry matter, pre 538): 566 g N/day
- Milk fat yield, Post ([1]; Na-KIC 0.75% of diet dry matter, pre printed 92): 1.00 kg/day
- milk fat yield increase ([1]; above controls, p<0.02): 10%
- higher milk yields ([1]; vs control cows): +5%
- higher percent milk fat ([1]; vs control cows, p<0.04): +4%
- Body storage (N balance), % Change ([1]; vs control, NS): +24%
- Body storage (N balance), KIC effect ([1]; vs control, NS): +8 g N/day
- Feces output, % Change ([1]; vs control, NS): -4%
- Feces output, KIC effect ([1]; vs control, NS): -8 g N/day
- Feed intake, % Change ([1]; vs control, NS): -2%
- Feed intake, KIC effect ([1]; vs control, NS): -9 g N/day
- Milk output, % Change ([1]; vs control, NS): +5%
- Milk output, KIC effect ([1]; vs control, NS): +6 g N/day
- Milk protein percent, KIC effect ([1]; vs control, NS): -.03%
- Urine output, % Change ([1]; vs control, NS): -85
- Urine output, KIC effect ([1]; vs control, NS): -15 g N/day
- Milk fat yield, % Change ([1]; vs control, p < .01): +10.4%
- Milk fat yield, KIC effect ([1]; vs control, p < .01): +.09 kg/day
- Milk fat percent, % Change ([1]; vs control, p < .04): +4.3%
- Milk fat percent, KIC effect ([1]; vs control, p < .04): +.17%
- Milk yield, % Change ([1]; vs control, p < .15): +5.1%
- Milk yield, KIC effect ([1]; vs control, p < .15): +1.10 kg/day
- CHOLESTEROL PLASMA: amount of cholesterol in plasma ([2]; Trial 1, CGM diet, 1% KIC (0%: 33)): 32 ng/mL
- CHOLESTEROL TISSUE: amount of cholesterol in lean tissue ([2]; Trial 1, CGM diet, 1% KIC (0%: 40)): 32 ng/mg
- CHOLESTEROL PLASMA: amount of cholesterol in plasma ([2]; Trial 1, SBM diet, 1% KIC (0%: 32)): 23 ng/mL
- CHOLESTEROL TISSUE: amount of cholesterol in lean tissue ([2]; Trial 1, SBM diet, 1% KIC (0%: 80)): 44 ng/mg
- CHOLESTEROL: lean tissue ([2]; Trial 2, CGM diet, 1% KIC (0%: 92.2), * p<.05): 81.2 ng/mg
- CHOLESTEROL: lean tissue ([2]; Trial 2, SBM diet, 1% KIC (0%: 75.2)): 83.2 ng/mg
